We go through 7 compounds from patent US4855316A (priority 1988, dated 1989).

SMILES strings stand for the structures.

Experiment [1] is described as follows: standard rat paw pressure analgesia test. Type of experiment: in vivo. The conditions noted are these: i.v. The source says: The ED50 doses for several representative compounds of this invention in the standard rat paw pressure analgesia test are presented in Table 1.
A further experiment deals with T1, mu opioid receptor (Cavia porcellus, UniProt A0ACM8Q262).
T1 construct: full-length wild-type receptor
T1 sequence (A0ACM8Q262 1-400): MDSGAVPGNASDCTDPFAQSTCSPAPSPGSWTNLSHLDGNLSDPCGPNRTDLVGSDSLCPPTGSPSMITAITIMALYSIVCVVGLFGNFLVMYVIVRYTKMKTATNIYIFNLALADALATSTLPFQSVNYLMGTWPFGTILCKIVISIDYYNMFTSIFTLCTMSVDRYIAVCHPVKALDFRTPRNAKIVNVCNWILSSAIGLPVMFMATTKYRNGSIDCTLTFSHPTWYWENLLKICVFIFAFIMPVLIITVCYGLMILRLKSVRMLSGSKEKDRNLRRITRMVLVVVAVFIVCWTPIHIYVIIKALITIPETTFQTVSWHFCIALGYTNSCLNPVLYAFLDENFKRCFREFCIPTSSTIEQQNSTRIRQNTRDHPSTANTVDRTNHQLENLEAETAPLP
The experiment can be described thus: mu opioid receptor binding: tritiated DAGO in guinea pig brain homogenates. The conditions noted are these: read-out: Opoid Binding Mu Ki; guinea pig brain homogenate, [3H]DAGO, 150 minutes, 0° C.

Broadly, the Ki is the equilibrium dissociation constant of an inhibitor or competing ligand from its target. As for `CO[C@H]1C[C@@H](N2CCCC2)[C@H](N(C)C(=O)COc2cc(C)c(Cl)c(C)c2)C[C@H]1OC` (relative stereo) [Compound 3], the “Rat Paw Pressure MPE50” value in experiment [1] was more than 10 mg·kg. Also, the Ki on mu opioid receptor was 720 nM. Regarding `CO[C@H]1C[C@@H](N2CCCC2)[C@H](N(C)C(=O)COc2ccc(Cl)c(Cl)c2)C[C@H]1OC` (relative stereo) [Compound 4], the “Rat Paw Pressure MPE50” value in experiment [1] is more than 10 mg·kg. The Ki at mu opioid receptor stood at 1100 nM.

Regarding `CO[C@H]1C[C@@H](N2CCCC2)[C@H](N(C)C(=O)Cc2cccc3ccccc23)C[C@H]1OC` (relative stereo) [Compound 5], the “Rat Paw Pressure MPE50” value in experiment [1] was 1.7 mg·kg. On the same count and under the same terms, the figure for `CO[C@H]1C[C@@H](N2CCCC2)[C@H](N(C)C(=O)Cc2ccc(Cl)c(Cl)c2)C[C@H]1OC` (relative stereo) [Compound 6] is 5.2 mg·kg. As for `CO[C@H]1C[C@@H](N2CCCC2)[C@H](N(C)C(=O)CC2c3ccccc3-c3ccccc32)C[C@H]1OC` (relative stereo) [Compound 7], at mu opioid receptor, the Ki worked out at 273 nM. On the same count and under the same terms, under `CO[C@H]1C[C@@H](N2CCCC2)[C@H](N(C)C(=O)COc2cc(C)c(Cl)c(C)c2Cl)C[C@H]1OC` (relative stereo) [Compound 8] stands 700 nM. On the same count and under the same terms, under `CO[C@H]1C[C@@H](N2CCCC2)[C@H](N(C)C(=O)COc2cccc(F)c2)C[C@H]1OC` (relative stereo) [Compound 9, N-[4,5-Dimethoxy-2-(1-pyrrolidinyl)cyclohexyl]-2-(3-fluorophenoxy)-N-methylacetamide] stands 1100 nM.
